# Assay results published in PubChem BioAssay (NCI).
#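 Growth conditions: 96-well plates. Treatment: test compound, 48 hours, 5 concentrations. Analysis: linear interpolation between bracketing concentrations; unreached endpoints set to highest concentration. TGI denotes the concentration required for complete inhibition of growth.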
# What was measured:
# Assay in all cases: inhibition of tumour cell growth, NCI panel, 48 h
# HCC-2998 colon = tested on: HCC-2998 colon
# SF-295 CNS = tested on: SF-295 CNS
# RPMI-8226 leukemia = tested on: RPMI-8226 leukemia
# HCT-116 colon = tested on: HCT-116 colon
# KM12 colon = tested on: KM12 colon
# DLD-1 colon = tested on: DLD-1 colon
# LOX IMVI melanoma = tested on: LOX IMVI melanoma
# UACC-257 melanoma = tested on: UACC-257 melanoma
# OVCAR-8 ovarian = tested on: OVCAR-8 ovarian
# M19-MEL melanoma = tested on: M19-MEL melanoma
# RXF 393 renal = tested on: RXF 393 renal
# SF-268 CNS = tested on: SF-268 CNS
# ACHN renal = tested on: ACHN renal
# XF 498 CNS = tested on: XF 498 CNS
# SK-MEL-28 melanoma = tested on: SK-MEL-28 melanoma
# SNB-19 CNS = tested on: SNB-19 CNS
# CAKI-1 renal = tested on: CAKI-1 renal
# SK-MEL-5 melanoma = tested on: SK-MEL-5 melanoma
# NCI-H23 lung = tested on: NCI-H23 lung
# HCT-15 colon = tested on: HCT-15 colon
# TK-10 renal = tested on: TK-10 renal
# UACC-62 melanoma = tested on: UACC-62 melanoma
# SF-539 CNS = tested on: SF-539 CNS
# HOP-62 NSCLC = tested on: HOP-62 NSCLC
# U251 CNS = tested on: U251 CNS
# EKVX NSCLC = tested on: EKVX NSCLC
# SNB-75 CNS = tested on: SNB-75 CNS
# M14 melanoma = tested on: M14 melanoma
# LXFL 529 NSCLC = tested on: LXFL 529 NSCLC
# HOP-92 NSCLC = tested on: HOP-92 NSCLC
# HT29 colon = tested on: HT29 colon
# KM20L2 colon = tested on: KM20L2 colon
# 786-0 renal = tested on: 786-0 renal
# SNB-78 CNS = tested on: SNB-78 CNS
# A549 NSCLC = tested on: A549 NSCLC
# HOP-18 NSCLC = tested on: HOP-18 NSCLC
# HL-60(TB) leukemia = tested on: HL-60(TB) leukemia
# NCI-H460 lung = tested on: NCI-H460 lung
# OVCAR-3 ovarian = tested on: OVCAR-3 ovarian
# SR leukemia = tested on: SR leukemia
# UO-31 renal = tested on: UO-31 renal
# SW-620 colon = tested on: SW-620 colon
# IGROV1 ovarian = tested on: IGROV1 ovarian
# NCI-H522 lung = tested on: NCI-H522 lung
# SN12C renal = tested on: SN12C renal
# DMS 273 small cell lung = tested on: DMS 273 small cell lung
# OVCAR-4 ovarian = tested on: OVCAR-4 ovarian
# K-562 leukemia = tested on: K-562 leukemia
# NCI-H226 lung = tested on: NCI-H226 lung
# MOLT-4 leukemia = tested on: MOLT-4 leukemia
# COLO 205 colon = tested on: COLO 205 colon
# SK-OV-3 ovarian = tested on: SK-OV-3 ovarian
# CCRF-CEM leukemia = tested on: CCRF-CEM leukemia
# OVCAR-5 ovarian = tested on: OVCAR-5 ovarian
# MALME-3M melanoma = tested on: MALME-3M melanoma
# SK-MEL-2 melanoma = tested on: SK-MEL-2 melanoma
# A498 renal = tested on: A498 renal
# DMS 114 small cell lung = tested on: DMS 114 small cell lung
# MCF7 breast = tested on: MCF7 breast
# DU-145 prostate = tested on: DU-145 prostate
# HS 578T breast = tested on: HS 578T breast
# BT-549 breast = tested on: BT-549 breast
# PC-3 prostate = tested on: PC-3 prostate
# MDA-MB-435 = tested on: MDA-MB-435
# T-47D breast = tested on: T-47D breast
# MDA-N = tested on: MDA-N
# MDA-MB-231 breast = tested on: MDA-MB-231 breast
# NCI/ADR-RES ovarian = tested on: NCI/ADR-RES ovarian
structure (smiles),measurement,setting,value
O=C(/C=C/c1ccccc1)Oc1cccc2cccnc12,TGI,HCC-2998 colon,> 100 µM
same,TGI,SF-295 CNS,> 100 µM
same,TGI,RPMI-8226 leukemia,> 100 µM
same,TGI,HCT-116 colon,10.9 µM
same,TGI,KM12 colon,32.1 µM
same,TGI,DLD-1 colon,31.4 µM
same,TGI,LOX IMVI melanoma,> 100 µM
same,TGI,UACC-257 melanoma,18.2 µM
same,TGI,OVCAR-8 ovarian,> 62.2 µM
same,TGI,M19-MEL melanoma,> 100 µM
same,TGI,RXF 393 renal,> 85.4 µM
same,TGI,SF-268 CNS,13.7 µM
same,TGI,ACHN renal,> 100 µM
same,TGI,XF 498 CNS,72.5 µM
same,TGI,SK-MEL-28 melanoma,> 86.3 µM
same,TGI,SNB-19 CNS,> 75.2 µM
same,TGI,CAKI-1 renal,83.2 µM
same,TGI,SK-MEL-5 melanoma,24 µM
same,TGI,NCI-H23 lung,20 µM
same,TGI,HCT-15 colon,26.2 µM
same,TGI,TK-10 renal,> 100 µM
same,TGI,UACC-62 melanoma,27.1 µM
same,TGI,SF-539 CNS,30.5 µM
same,TGI,HOP-62 NSCLC,> 100 µM
same,TGI,U251 CNS,30.8 µM
same,TGI,EKVX NSCLC,> 68.2 µM
same,TGI,SNB-75 CNS,> 71 µM
same,TGI,M14 melanoma,14.8 µM
same,TGI,LXFL 529 NSCLC,52.2 µM
same,TGI,HOP-92 NSCLC,81.6 µM
same,TGI,HT29 colon,29.3 µM
same,TGI,KM20L2 colon,> 39.3 µM
same,TGI,786-0 renal,> 100 µM
same,TGI,SNB-78 CNS,> 100 µM
same,TGI,A549 NSCLC,76.9 µM
same,TGI,HOP-18 NSCLC,> 100 µM
same,TGI,HL-60(TB) leukemia,> 28.1 µM
same,TGI,NCI-H460 lung,35.4 µM
same,TGI,OVCAR-3 ovarian,24.6 µM
same,TGI,SR leukemia,> 100 µM
same,TGI,UO-31 renal,> 73 µM
same,TGI,SW-620 colon,21.9 µM
same,TGI,IGROV1 ovarian,32.4 µM
same,TGI,NCI-H522 lung,5.31 µM
same,TGI,SN12C renal,> 58.6 µM
same,TGI,DMS 273 small cell lung,45.6 µM
same,TGI,OVCAR-4 ovarian,27.6 µM
same,TGI,K-562 leukemia,> 100 µM
same,TGI,NCI-H226 lung,> 66.7 µM
same,TGI,MOLT-4 leukemia,> 51.1 µM
same,TGI,COLO 205 colon,21.1 µM
same,TGI,SK-OV-3 ovarian,> 100 µM
same,TGI,CCRF-CEM leukemia,> 29.3 µM
same,TGI,OVCAR-5 ovarian,80.6 µM
same,TGI,MALME-3M melanoma,11.4 µM
CN(C(=O)/C=C/c1ccccc1)C1C2CN3CCC(O2)C13 (stereo not drawn),TGI,SK-MEL-2 melanoma,> 100 µM
same,TGI,HCC-2998 colon,> 100 µM
same,TGI,SF-295 CNS,> 100 µM
same,TGI,HCT-116 colon,> 100 µM
same,TGI,KM12 colon,> 100 µM
same,TGI,DLD-1 colon,> 100 µM
same,TGI,LOX IMVI melanoma,> 100 µM
same,TGI,UACC-257 melanoma,> 100 µM
same,TGI,OVCAR-8 ovarian,> 100 µM
same,TGI,RXF 393 renal,> 100 µM
same,TGI,SF-268 CNS,> 100 µM
same,TGI,ACHN renal,> 100 µM
same,TGI,XF 498 CNS,> 100 µM
same,TGI,SK-MEL-28 melanoma,> 100 µM
same,TGI,SNB-19 CNS,> 100 µM
same,TGI,A498 renal,> 100 µM
same,TGI,CAKI-1 renal,> 100 µM
same,TGI,SK-MEL-5 melanoma,> 100 µM
same,TGI,NCI-H23 lung,> 100 µM
same,TGI,HCT-15 colon,> 100 µM
same,TGI,DMS 114 small cell lung,> 100 µM
same,TGI,TK-10 renal,> 100 µM
same,TGI,UACC-62 melanoma,> 100 µM
same,TGI,SF-539 CNS,> 100 µM
same,TGI,HOP-62 NSCLC,> 100 µM
same,TGI,U251 CNS,> 100 µM
same,TGI,EKVX NSCLC,> 100 µM
same,TGI,SNB-75 CNS,> 100 µM
same,TGI,M14 melanoma,> 100 µM
same,TGI,LXFL 529 NSCLC,> 100 µM
same,TGI,HT29 colon,> 100 µM
same,TGI,KM20L2 colon,> 100 µM
same,TGI,786-0 renal,> 100 µM
same,TGI,SNB-78 CNS,> 100 µM
same,TGI,A549 NSCLC,> 100 µM
same,TGI,HOP-18 NSCLC,> 100 µM
same,TGI,HL-60(TB) leukemia,> 100 µM
same,TGI,NCI-H460 lung,> 100 µM
same,TGI,OVCAR-3 ovarian,> 100 µM
same,TGI,UO-31 renal,> 100 µM
same,TGI,SW-620 colon,> 100 µM
same,TGI,IGROV1 ovarian,> 100 µM
same,TGI,NCI-H522 lung,> 100 µM
same,TGI,SN12C renal,> 100 µM
same,TGI,DMS 273 small cell lung,> 100 µM
same,TGI,OVCAR-4 ovarian,> 100 µM
same,TGI,K-562 leukemia,> 100 µM
same,TGI,NCI-H226 lung,> 100 µM
same,TGI,MOLT-4 leukemia,> 100 µM
same,TGI,COLO 205 colon,> 100 µM
same,TGI,SK-OV-3 ovarian,> 100 µM
same,TGI,CCRF-CEM leukemia,> 100 µM
same,TGI,OVCAR-5 ovarian,> 100 µM
same,TGI,MALME-3M melanoma,> 100 µM
FC(F)(F)c1cccc(-c2nc3nc(Cl)c(Cl)nc3[nH]2)c1,TGI,SK-MEL-2 melanoma,6.02 µM
same,TGI,HCC-2998 colon,8.04 µM
same,TGI,SF-295 CNS,> 100 µM
same,TGI,RPMI-8226 leukemia,3.5 µM
same,TGI,MCF7 breast,8.95 µM
same,TGI,HCT-116 colon,12.1 µM
same,TGI,KM12 colon,11 µM
same,TGI,LOX IMVI melanoma,13.1 µM
same,TGI,UACC-257 melanoma,> 30.9 µM
same,TGI,OVCAR-8 ovarian,> 100 µM
same,TGI,RXF 393 renal,27 µM
same,TGI,SF-268 CNS,> 65.8 µM
same,TGI,ACHN renal,> 28.2 µM
same,TGI,DU-145 prostate,> 100 µM
same,TGI,SK-MEL-28 melanoma,27.3 µM
same,TGI,SNB-19 CNS,> 59.2 µM
same,TGI,A498 renal,6.12 µM
same,TGI,CAKI-1 renal,11 µM
same,TGI,SK-MEL-5 melanoma,3.16 µM
same,TGI,NCI-H23 lung,14.7 µM
same,TGI,HCT-15 colon,> 38.6 µM
same,TGI,HS 578T breast,17.8 µM
same,TGI,TK-10 renal,> 76.1 µM
same,TGI,UACC-62 melanoma,24.5 µM
same,TGI,SF-539 CNS,> 27.7 µM
same,TGI,HOP-62 NSCLC,23.5 µM
same,TGI,U251 CNS,13.6 µM
same,TGI,EKVX NSCLC,23.2 µM
same,TGI,BT-549 breast,51.8 µM
same,TGI,PC-3 prostate,9.37 µM
same,TGI,SNB-75 CNS,7.06 µM
same,TGI,M14 melanoma,30.8 µM
same,TGI,HOP-92 NSCLC,9.79 µM
same,TGI,HT29 colon,9.2 µM
same,TGI,786-0 renal,> 65.7 µM
same,TGI,A549 NSCLC,> 40.3 µM
same,TGI,HL-60(TB) leukemia,4.7 µM
same,TGI,NCI-H460 lung,> 30.3 µM
same,TGI,OVCAR-3 ovarian,14.9 µM
same,TGI,SR leukemia,12.2 µM
same,TGI,UO-31 renal,3.88 µM
same,TGI,MDA-MB-435,13 µM
same,TGI,SW-620 colon,> 42.3 µM
same,TGI,IGROV1 ovarian,> 100 µM
same,TGI,NCI-H522 lung,4.11 µM
same,TGI,SN12C renal,> 35.9 µM
same,TGI,OVCAR-4 ovarian,> 41.6 µM
same,TGI,T-47D breast,12.9 µM
same,TGI,K-562 leukemia,17 µM
same,TGI,MDA-N,32 µM
same,TGI,NCI-H226 lung,13.5 µM
same,TGI,MOLT-4 leukemia,10.4 µM
same,TGI,COLO 205 colon,2.98 µM
same,TGI,MDA-MB-231 breast,8.39 µM
same,TGI,SK-OV-3 ovarian,> 90.1 µM
same,TGI,NCI/ADR-RES ovarian,> 100 µM
same,TGI,CCRF-CEM leukemia,7.99 µM
same,TGI,OVCAR-5 ovarian,16 µM
same,TGI,MALME-3M melanoma,12.5 µM
